Experimental data taken from patent US20110100079A1, “METHOD FOR IMPARTING STRESS TOLERANCE TO PLANT” (priority 2007, published 2011).

Assays:
Assay type in all cases: in vivo
“Momotaro” tomato [1] = test: Example 2 temperature stress tolerance imparting test (tomato); settings: 32° C., leaf, 2 weeks
Experimental: Other cultivation conditions were the same as the conditions of the temperature stress test. […] (2) Solution culture medium: […] Method of Temperature Stress Tolerance Imparting Test The temperature in a climatic chamber was controlled so as to be 10, 15, or 32° C. The environmental conditions were controlled so as to have an illuminance by a fluorescent light of 5000 Lux and a daily light-dark cycle of a 16-hour light period and a 8-hour dark period. In this test, a temperature of 23° C. at which the optimum growth was observed was regarded as a reference temperature (temperature stress-free test condition), and a stress was imposed by applying a temperature higher or lower than the reference temperature. A tomato as prepared above was planted in a 250 ml polyethylene bottle filled with the solution culture medium (½ Otsuka A formulation). A treatment solution as presented in Table 1 was sprayed onto the leaves or applied to the underground portion. […] Ten specimens were prepared for each of the test plot and the control plots, and a plant stress level and an extent of imparting plant stress tolerance were calculated according to Formula (ii) and (iii) above using as a fresh plant body weight the average of the fresh plant body weights of each specimen 2 weeks after the beginning of the test.

tomato [2] = test: Example 7 drying stress test (tomato), soil culture; settings: 23° C., leaf, 100 ppm, 2 weeks; for Fresh weight, relative value (untreated plot = 100), Comparison 1: stress-free: tomato soil culture, EC 1, pF 1.7, two-leaf stage; for Fresh weight, relative value (untreated plot = 100), Test 1 / Fresh weight, relative value (untreated plot = 100), Test 4 / Fresh weight, relative value (untreated plot = 100), Test 2 / Fresh weight, relative value (untreated plot = 100), Test 3: tomato soil culture; for Fresh weight, relative value (untreated plot = 100), Test 1: EC 1, pF 2.8, two-leaf stage; for Fresh weight, relative value (untreated plot = 100), Test 4: EC 1, pF 3.5, five-leaf stage; for Fresh weight, relative value (untreated plot = 100), Test 2: EC 1, pF 3.5, two-leaf stage; for Fresh weight, relative value (untreated plot = 100), Test 3: EC 1, pF 4.1, two-leaf stage
Experimental: (§1) The environmental conditions in a climatic chamber were controlled so as to have a temperature of 23° C., an illuminance by a fluorescent light of 5000 Lux, and a daily light-dark cycle of a 16-hour light period and an 8-hour dark period. Tomatoes as prepared above were transplanted in size-3 (9 cm) pots. During the test period, the pF value was controlled by adding a suitable amount of tap water once a day so as to attain a specific drying stress value. A treatment solution containing a compound of Table 1 in a specific concentration (the remainder was water) was prepared and sprayed onto the leaves or applied to the underground portions. […] A comparative example was constructed to reflect the drying stress-free optimum cultivation conditions to investigate the plant energizing ability. […] Moreover, when the products of the present invention and the comparative products were compared, the stress tolerance imparting ability of the products of the present invention was higher in respective drying stress conditions.

tomato [3] = test: Example 8 temperature stress test (tomato), soil culture; settings: leaf, 100 ppm, 2 weeks; for Fresh weight, relative value (untreated plot = 100), Comparison 1: stress-free: tomato soil culture, cultivation temperature 23, EC 1, pF 1.7, two-leaf stage; for Fresh weight, relative value (untreated plot = 100), Test 1 / Fresh weight, relative value (untreated plot = 100), Test 2 / Fresh weight, relative value (untreated plot = 100), Test 3 / Fresh weight, relative value (untreated plot = 100), Test 4: tomato soil culture; for Fresh weight, relative value (untreated plot = 100), Test 1: cultivation temperature 10, EC 1, pF 1.7, two-leaf stage; for Fresh weight, relative value (untreated plot = 100), Test 2: cultivation temperature 16, EC 1, pF 1.7, two-leaf stage; for Fresh weight, relative value (untreated plot = 100), Test 3: cultivation temperature 29, EC 1, pF 1.7, two-leaf stage; for Fresh weight, relative value (untreated plot = 100), Test 4: cultivation temperature 35, EC 1, pF 1.7, two-leaf stage
Experimental: as §1, with “Other Conditions were as in Example 5. The” for “The”, “have” for “have a temperature of 23° C.,”, “Lux,” for “Lux, and”, “period, and various temperatures.” for “period.”, “pots.” for “pots. During the test period, the pF value was controlled by adding a suitable amount of tap water once a day so as to attain a specific drying stress value.”, “temperature” for “drying”

potato = test: Example 9 drying stress test (potato), soil culture; settings: 23° C., leaf, 100 ppm, 2 weeks; for Fresh weight, relative value (untreated plot = 100), Test 1 / Fresh weight, relative value (untreated plot = 100), Test 4 / Fresh weight, relative value (untreated plot = 100), Test 2 / Fresh weight, relative value (untreated plot = 100), Test 3: potato soil culture; for Fresh weight, relative value (untreated plot = 100), Test 1: EC 1, pF 2.8, two-leaf stage; for Fresh weight, relative value (untreated plot = 100), Test 4: EC 1, pF 3.5, five-leaf stage; for Fresh weight, relative value (untreated plot = 100), Test 2: EC 1, pF 3.5, two-leaf stage; for Fresh weight, relative value (untreated plot = 100), Test 3: EC 1, pF 4.1, two-leaf stage; for Fresh weight, relative value (untreated plot = 100), Comparison 1: stress-free: potato soil culture, EC 1, pF 1.7, two-leaf stage
Experimental: as §1, with “period. Potatoes” for “period. Tomatoes”, “in size-5 (15” for “in size-3 (9”, “Table 5” for “Table 1”

“Momotaro” tomato [4] = test: Example 3 drying stress tolerance imparting test (tomato); settings: pF 2.3, leaf, 3 weeks
Experimental: Other cultivation conditions were as with the conditions of the drying stress test. Drying stress conditions: soil pF value: 2.3, 2.5, or 2.9, cultivation temperature: 23° C., relative humidity: 50%, illuminance: 5000 Lux (fluorescent light), light/dark cycle: 16 hours/8 hours (2) Cultivation period: 3 weeks (3) Soil: Kureha gardening soil manufactured by Kureha Corporation (fertilizer components: N:P:K=0.4:1.9:0.6 g/kg soil) (4) Plant preparation: A 50-cell tray was filled with Kureha gardening soil manufactured by Kureha Corporation (fertilizer components: N:P:K=0.4:1.9:0.6 g/kg soil), and seeds of a “Momotaro” tomato were sowed, thinly covered with Kureha gardening soil, and sufficiently watered to allow the seeds to sprout. When the leaves in the 2-leaf stage fully unfolded, the soil on the tomato roots was carefully washed away with running water, and a test was performed. (5) The chemicals used and the amount of a treatment solution applied were as in Example 1. (6) Amount of treatment solution applied: 10 ml/specimen for leaf spraying, 50 ml/specimen for fertigation Method of Drying Stress Tolerance Imparting Test Five tomato specimens as prepared above were planted in a 60-cm planter placed on a plant culture rack in an air-conditioned room. […] From immediately after planting the tomatoes, a treatment solution of Table 1 was sprayed onto the leaves or applied to the underground portions once a week. […] Five specimens (per planter) were prepared for each of the test plot and the control plots, plant bodies were collected 3 weeks after the beginning of the test such that the roots were not cut, the soil was washed away with running water, the fresh plant body-weights were measured, and a plant stress level and an extent of imparting plant stress tolerance were calculated according to Formula (ii) and (iii) above using the average of the weights.

| Molecule | Extent of imparting plant stress tolerance (“Momotaro” tomato [1]; 100 ppm) | Fresh weight, relative value (untreated plot = 100), Test 1 (potato) | Fresh weight, relative value (untreated plot = 100), Test 4 (potato) | Fresh weight, relative value (untreated plot = 100), Test 2 (potato) | Fresh weight, relative value (untreated plot = 100), Test 3 (potato) | Fresh weight, relative value (untreated plot = 100), Comparison 1 (potato) | Extent of imparting plant stress tolerance (“Momotaro” tomato [4]; 100 ppm once a week) | also measured |
| --- | --- | --- | --- | --- | --- | --- | --- | --- |
| OC[C@H]1O[C@H](OC[C@H]2O[C@H](O[C@]3(CO)O[C@H](CO)[C@@H](O)[C@@H]3O)[C@H](O)[C@@H](O)[C@@H]2O)[C@H](O)[C@@H](O)[C@H]1O [Comparative product 4, Raffinose, reference compound] | 103% | 103 | 101 | 103 | 103 | 102 | 102% | Fresh weight, relative value (untreated plot = 100), Comparison 1 (tomato [2]): 102; Fresh weight, relative value (untreated plot = 100), Test 1 (tomato [2]): 103; Fresh weight, relative value (untreated plot = 100), Test 4 (tomato [2]): 101; Fresh weight, relative value (untreated plot = 100), Test 2 (tomato [2]): 103; Fresh weight, relative value (untreated plot = 100), Test 3 (tomato [2]): 103; Fresh weight, relative value (untreated plot = 100), Comparison 1 (tomato [3]): 102; Fresh weight, relative value (untreated plot = 100), Test 1 (tomato [3]): 100; Fresh weight, relative value (untreated plot = 100), Test 2 (tomato [3]): 100; Fresh weight, relative value (untreated plot = 100), Test 3 (tomato [3]): 101; Fresh weight, relative value (untreated plot = 100), Test 4 (tomato [3]): 101 |
| POE (6) sorbitan monooleic acid ester [Product of present invention 10] | 114% |  |  |  |  |  | 112% |  |
| POE (20) sorbitan monostearic acid ester [Product of present invention 14] | 118% |  |  |  |  |  | 115% |  |
| POE (20) sorbitan monolauric acid ester [Product of present invention 12] | 117% | 128 | 145 | 143 | 129 | 101 | 115% | Extent of imparting plant stress tolerance (“Momotaro” tomato [1]; 200 ppm): 121%; Fresh weight, relative value (untreated plot = 100), Comparison 1 (tomato [2]): 101; Fresh weight, relative value (untreated plot = 100), Test 1 (tomato [2]): 130; Fresh weight, relative value (untreated plot = 100), Test 4 (tomato [2]): 148; Fresh weight, relative value (untreated plot = 100), Test 2 (tomato [2]): 162; Fresh weight, relative value (untreated plot = 100), Test 3 (tomato [2]): 135; Fresh weight, relative value (untreated plot = 100), Comparison 1 (tomato [3]): 102; Fresh weight, relative value (untreated plot = 100), Test 1 (tomato [3]): 124; Fresh weight, relative value (untreated plot = 100), Test 2 (tomato [3]): 126; Fresh weight, relative value (untreated plot = 100), Test 3 (tomato [3]): 144; Fresh weight, relative value (untreated plot = 100), Test 4 (tomato [3]): 132; Extent of imparting plant stress tolerance (“Momotaro” tomato [4]; 200 ppm once a week): 118% |
| C[N+](C)(C)CC(=O)[O-] [Comparative product 3, Glycine betaine, reference compound] | 102% | 102 | 101 | 102 | 102 | 102 | 103% | Fresh weight, relative value (untreated plot = 100), Comparison 1 (tomato [2]): 102; Fresh weight, relative value (untreated plot = 100), Test 1 (tomato [2]): 102; Fresh weight, relative value (untreated plot = 100), Test 4 (tomato [2]): 101; Fresh weight, relative value (untreated plot = 100), Test 2 (tomato [2]): 103; Fresh weight, relative value (untreated plot = 100), Test 3 (tomato [2]): 103; Fresh weight, relative value (untreated plot = 100), Comparison 1 (tomato [3]): 102; Fresh weight, relative value (untreated plot = 100), Test 1 (tomato [3]): 100; Fresh weight, relative value (untreated plot = 100), Test 2 (tomato [3]): 100; Fresh weight, relative value (untreated plot = 100), Test 3 (tomato [3]): 101; Fresh weight, relative value (untreated plot = 100), Test 4 (tomato [3]): 101 |
| POE (20) sorbitan monopalmitic acid ester [Product of present invention 13] | 116% |  |  |  |  |  | 116% |  |
| Sucrose fatty acid ester (C18, HLB = 9) [Product of present invention 18] | 113% |  |  |  |  |  | 113% |  |
| Alkyl (C12-14) polyglycoside [Product of present invention 16] | 116% | 120 | 132 | 140 | 120 | 101 | 118% |  |
| Sorbitan monooleic acid ester [Product of present invention 11] | 113% |  |  |  |  |  | 112% |  |
| Sucrose fatty acid ester (C16, HLB = 15) [Product of present invention 21] | 116% |  |  |  |  |  | 117% |  |
| Sucrose fatty acid ester (C18, HLB = 11) [Product of present invention 19] | 114% |  |  |  |  |  | 115% |  |
| Sucrose fatty acid ester (C18:1, HLB = 15) [Product of present invention 22] | 115% |  |  |  |  |  | 117% | Extent of imparting plant stress tolerance (“Momotaro” tomato [1]; 200 ppm): 113%; Extent of imparting plant stress tolerance (“Momotaro” tomato [4]; 200 ppm once a week): 113% |
